{"source": "paper PMC12005787", "about": "“Synthetic Lethality of SHP2 and XIAP Suppresses Proliferation and Metastasis in KRAS‐mutant Nonsmall Cell Lung Cancer” (Advanced Science, 2025)", "key": {"HePTP": {"biological_target": "T1, HePTP (Homo sapiens, UniProt P35236)", "T1 construct": "His; made in house; host or cells: E. coli", "T1 sequence (P35236 1-360)": "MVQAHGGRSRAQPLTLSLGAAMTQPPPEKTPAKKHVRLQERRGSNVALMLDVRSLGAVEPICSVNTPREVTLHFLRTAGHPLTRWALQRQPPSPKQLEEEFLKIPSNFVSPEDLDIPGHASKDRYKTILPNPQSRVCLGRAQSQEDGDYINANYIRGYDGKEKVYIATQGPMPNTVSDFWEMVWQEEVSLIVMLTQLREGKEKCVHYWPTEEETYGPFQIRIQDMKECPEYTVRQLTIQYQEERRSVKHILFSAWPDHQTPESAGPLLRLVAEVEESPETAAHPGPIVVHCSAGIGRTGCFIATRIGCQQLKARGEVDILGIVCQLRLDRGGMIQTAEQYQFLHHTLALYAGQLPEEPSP", "assay": "PTPs activity assay (DiFMUP)", "type": "biochemical", "procedure": "(§1) Catalytic activity screening methods for PTPs using candidate compounds were performed as previously described.^[ [77] ^] In brief, soluble fusion PTP proteins, His‐ΔSHP2, encompassing the peptide from amino acids 205–593 retaining PTP activity, His‐ΔSHP2^K325A, His‐ΔSHP1, encompassing the peptide from amino acids 202–595 retaining PTP activity, His‐PTP1B, His‐HePTP, His‐VHR, and His‐TCPTP were cloned, expressed, and purified in E. coli. After determining protein concentration using bicinchoninic acid (BCA) assay kit, 1 µg fusion protein, 10 µM library compound were added in 100 µL reaction mixture (55 mM 4‐(2‐hydroxyethyl)‐1‐piperazineethanesulfonic acid [HEPES], 100 mM sodium chloride [NaCl], 0.5 mM ethylenediaminetetraacetic acid [EDTA], 1 mM dithiothreitol [DTT], 0.01% Triton X‐100, 0.002% bovine serum albumin [BSA], and 0.1% dimethyl sulfoxide [DMSO]) and incubated at 37 °C for 30 min in the dark, with Na3VO4 as positive control. The detection substrate DiFMUP (50 µM) was promptly added to each reaction and functioned at 37 °C for 30 min in the dark. The fluorescence intensity was then measured using Multimode Plate Reader (λa = 358 nm, λe = 455 nm, PerkinElmer, USA)."}, "PTP1B": {"biological_target": "T2, PTP1B (Homo sapiens, UniProt P18031)", "T2 construct": "His; made in house; host or cells: E. coli", "T2 sequence (P18031 1-435)": "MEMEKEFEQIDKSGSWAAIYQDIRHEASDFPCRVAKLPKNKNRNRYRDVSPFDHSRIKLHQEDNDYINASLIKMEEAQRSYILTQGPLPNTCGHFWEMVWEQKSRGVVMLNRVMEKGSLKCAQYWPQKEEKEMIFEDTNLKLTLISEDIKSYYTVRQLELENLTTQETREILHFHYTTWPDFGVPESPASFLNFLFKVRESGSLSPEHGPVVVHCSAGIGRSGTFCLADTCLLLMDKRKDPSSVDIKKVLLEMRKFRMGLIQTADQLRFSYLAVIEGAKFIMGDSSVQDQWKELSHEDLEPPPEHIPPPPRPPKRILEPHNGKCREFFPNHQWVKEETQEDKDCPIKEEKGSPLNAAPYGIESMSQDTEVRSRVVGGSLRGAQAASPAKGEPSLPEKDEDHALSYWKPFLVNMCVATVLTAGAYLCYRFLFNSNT", "assay": "PTPs activity assay (DiFMUP)", "type": "biochemical", "details": "read-out: IC50 of PTPs PTP1B", "procedure": "as §1"}, "TCPTP": {"biological_target": "T3, TCPTP (Homo sapiens, UniProt P17706)", "T3 construct": "His; made in house; host or cells: E. coli", "T3 sequence (P17706 1-415)": "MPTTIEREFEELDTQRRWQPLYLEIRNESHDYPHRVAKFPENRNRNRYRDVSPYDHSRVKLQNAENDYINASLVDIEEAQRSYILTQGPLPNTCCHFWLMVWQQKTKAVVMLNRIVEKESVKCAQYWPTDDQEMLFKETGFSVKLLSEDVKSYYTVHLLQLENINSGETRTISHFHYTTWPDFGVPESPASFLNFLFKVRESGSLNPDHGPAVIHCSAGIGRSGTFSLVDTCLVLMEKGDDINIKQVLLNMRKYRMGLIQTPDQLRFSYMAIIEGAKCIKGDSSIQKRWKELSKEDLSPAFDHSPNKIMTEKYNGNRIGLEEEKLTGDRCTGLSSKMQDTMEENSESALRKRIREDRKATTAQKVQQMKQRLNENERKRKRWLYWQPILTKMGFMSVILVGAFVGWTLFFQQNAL", "assay": "PTPs activity assay (DiFMUP)", "type": "biochemical", "procedure": "as §1"}, "VHR": {"biological_target": "T4, VHR (Homo sapiens, UniProt P51452)", "T4 construct": "His; made in house; host or cells: E. coli", "T4 sequence (P51452 whole entry)": "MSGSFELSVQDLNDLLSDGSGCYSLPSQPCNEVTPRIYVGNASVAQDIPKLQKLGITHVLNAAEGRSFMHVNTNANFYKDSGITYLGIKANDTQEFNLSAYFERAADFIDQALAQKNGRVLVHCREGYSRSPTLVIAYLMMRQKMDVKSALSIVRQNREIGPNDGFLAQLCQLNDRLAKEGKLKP", "assay": "PTPs activity assay (DiFMUP)", "type": "biochemical", "procedure": "as §1"}, "ΔSHP1": {"biological_target": "T5, ΔSHP1 (Homo sapiens, UniProt P29350)", "T5 construct": "His‐ΔSHP1, encompassing the peptide from amino acids 202–595 retaining PTP activity; His; made in house; host or cells: E. coli", "T5 sequence (P29350 202-595, stated change not applied)": "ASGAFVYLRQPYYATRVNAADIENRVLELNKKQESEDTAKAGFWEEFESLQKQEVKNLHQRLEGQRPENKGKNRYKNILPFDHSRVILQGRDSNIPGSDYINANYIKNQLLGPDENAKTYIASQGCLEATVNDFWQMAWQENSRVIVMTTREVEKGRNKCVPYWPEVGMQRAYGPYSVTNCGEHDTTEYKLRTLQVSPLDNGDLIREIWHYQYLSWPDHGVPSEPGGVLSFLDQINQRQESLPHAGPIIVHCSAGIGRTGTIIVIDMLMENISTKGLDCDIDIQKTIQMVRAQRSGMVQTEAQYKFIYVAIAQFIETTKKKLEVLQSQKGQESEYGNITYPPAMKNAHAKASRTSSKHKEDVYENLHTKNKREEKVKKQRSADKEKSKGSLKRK", "assay": "PTPs activity assay (DiFMUP)", "type": "biochemical", "procedure": "as §1"}, "ΔSHP2": {"biological_target": "T6, ΔSHP2 (Homo sapiens, UniProt Q06124)", "T6 construct": "His‐ΔSHP2, encompassing the peptide from amino acids 205–593 retaining PTP activity; His; made in house; host or cells: E. coli", "T6 sequence (Q06124 205-593)": "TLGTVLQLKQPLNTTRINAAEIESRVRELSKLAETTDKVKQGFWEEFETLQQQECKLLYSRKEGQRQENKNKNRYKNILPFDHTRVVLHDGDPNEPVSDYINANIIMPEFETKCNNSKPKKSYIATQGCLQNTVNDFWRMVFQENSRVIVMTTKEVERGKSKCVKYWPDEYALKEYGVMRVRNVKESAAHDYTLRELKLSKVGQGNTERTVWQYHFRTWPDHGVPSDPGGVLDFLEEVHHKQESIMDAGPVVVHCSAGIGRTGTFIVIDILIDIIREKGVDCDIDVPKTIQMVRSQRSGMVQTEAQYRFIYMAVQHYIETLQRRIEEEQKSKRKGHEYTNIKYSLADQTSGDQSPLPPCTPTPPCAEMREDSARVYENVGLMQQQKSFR", "assay": "PTPs activity assay (DiFMUP)", "type": "biochemical", "procedure": "as §1"}, "NCI‐H2122 cells": {"system": "NCI‐H2122 cells", "assay": "Cell cycle assay", "type": "cell-based, human", "details": "embelin 15 µM or SHP099 10 µM for 72 h", "procedure": "NCI-H2122 cells treated with given disposal were washed with pre-cooled PBS, fixed\nwith ice pre-cooled 70% ethanol at 4℃ for 2 h. And then PI staining solution (containing\nRNaseA) was incubated in dark at 37℃ for 30 min. Red fluorescence and light scattering\nwere detected by flow cytometry at 488 nm. Cell cycle results were analyzed and visualized\nusing ModFit LT and FlowJo software. […]\n(1 picture or pasted object on this page, not shown here)"}}}
{"molecule": "CCCCCCCCCCCC1=C(O)C(=O)C=C(O)C1=O", "note": "[Embelin]", "values": [{"measurement": "IC50", "setting": "HePTP", "result": "> 200", "unit": "µM"}, {"measurement": "IC50", "setting": "PTP1B", "result": "> 200", "unit": "µM"}, {"measurement": "IC50", "setting": "TCPTP", "result": "> 200", "unit": "µM"}, {"measurement": "IC50", "setting": "VHR", "result": "> 200", "unit": "µM"}, {"measurement": "IC50", "setting": "ΔSHP1", "result": "> 200", "unit": "µM"}, {"measurement": "IC50", "setting": "ΔSHP2", "result": 10.5, "unit": "µM"}, {"measurement": "effect on cell cycle", "setting": "NCI‐H2122 cells", "result": "blocked the G2/M cycle"}]}
{"molecule": "O=C1Nc2ccc(I)cc2/C1=C/c1cc(Br)c(O)c(Br)c1", "note": "[S2872, GW5074]", "values": [{"measurement": "IC50", "setting": "HePTP", "result": 472, "unit": "µM"}, {"measurement": "IC50", "setting": "PTP1B", "result": 110, "unit": "µM"}, {"measurement": "IC50", "setting": "TCPTP", "result": 322, "unit": "µM"}, {"measurement": "IC50", "setting": "VHR", "result": 131, "unit": "µM"}, {"measurement": "IC50", "setting": "ΔSHP1", "result": 246, "unit": "µM"}, {"measurement": "IC50", "setting": "ΔSHP2", "result": 33.8, "unit": "µM"}]}
{"molecule": "CC1(N)CCN(c2cnc(-c3cccc(Cl)c3Cl)c(N)n2)CC1", "note": "[SHP099]", "values": [{"measurement": "effect on cell cycle", "setting": "NCI‐H2122 cells", "result": "had no effect"}]}
